Experimental findings from PubChem BioAssay AID743432 (The Scripps Research Institute Molecular Screening Center, 2014) are described below.

The source made the active and inactive calls. The rule behind the calls is not given here. A value given as a limit tells only on which side of the number the result lay.

The term IC50 denotes the concentration needed to halve the response being measured.

Sequence of Sphingosine 1-phosphate receptor 4 (Homo sapiens) (O95977 whole entry, looked up): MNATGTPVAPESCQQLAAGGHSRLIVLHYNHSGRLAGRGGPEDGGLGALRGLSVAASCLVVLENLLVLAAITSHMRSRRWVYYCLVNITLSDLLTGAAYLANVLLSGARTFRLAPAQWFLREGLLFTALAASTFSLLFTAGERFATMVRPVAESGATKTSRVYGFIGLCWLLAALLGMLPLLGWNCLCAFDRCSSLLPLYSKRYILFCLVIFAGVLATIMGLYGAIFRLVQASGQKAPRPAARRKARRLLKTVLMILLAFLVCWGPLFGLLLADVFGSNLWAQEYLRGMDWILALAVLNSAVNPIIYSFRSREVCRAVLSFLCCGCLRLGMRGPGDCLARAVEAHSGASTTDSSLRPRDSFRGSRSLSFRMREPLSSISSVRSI

The assay concerns the target Sphingosine 1-phosphate receptor 4 (Homo sapiens) (UniProt O95977). The assay can be described thus: S1P4 receptor antagonists, late-stage follow-up, selectivity assay for S1PR3 antagonist project, cell-based, FRET, dose response (AID 743432). The settings on record: S1P4 cell line.
As to `Cc1ccc(C(=O)NC(c2ccccc2)c2nc(-c3ccccc3)no2)cc1` (stereo not given), the IC50 is > 50 µM (inactive).

On to `O=C(NC(c1cccc(Cl)c1)c1nc(-c2ccccc2)no1)c1cccc(Cl)c1` (stereo not given), for which the IC50 was 5.2 µM.

With `O=C(NC(c1ccccc1)c1nc(-c2ccccc2)no1)c1cccc(Br)c1` (stereo not given), the IC50 is > 50 µM (inactive).

`O=C(NC(c1ccc(Cl)c(Cl)c1)c1nc(-c2ccccc2)no1)c1ccc(Cl)c(Cl)c1` (stereo not given): the IC50 was > 50 µM (inactive).

`O=C(NC(c1cccc(Cl)c1)c1nc(-c2ccccc2)no1)c1ccc(Cl)c(Cl)c1` (stereo not given): the IC50 was > 50 µM (inactive).

For `O=C(NC(c1nc(-c2ccccc2)no1)C1CCCCC1)c1ccc(Cl)c(Cl)c1` (stereo not given), the IC50 is > 50 µM (inactive).

For `N#Cc1ccc(C(=O)NC(c2ccc(Cl)c(Cl)c2)c2nc(-c3ccccc3)no2)cc1` (stereo not given), the IC50 is 3.1 µM.

Turning to `O=C(NC(c1ccc(Cl)cc1)c1nc(-c2ccccn2)no1)c1cccc(Cl)c1` (stereo not given), the IC50 was > 50 µM (inactive).

Consider `O=C(NC(c1cccc(Cl)c1)c1nc(-c2ccccc2)no1)c1cc(Cl)cc(Cl)c1` (stereo not given), for which the IC50 is > 50 µM (inactive).

On to `O=C(NC(c1ccc(Br)cc1)c1nc(-c2ccccc2)no1)c1ccc(Cl)c(Cl)c1` (stereo not given), for which the IC50 is > 50 µM (inactive).

Regarding `O=C(NC(c1ccccc1)c1nc(-c2ccccc2)no1)c1cccc(Cl)c1` (stereo not given), the IC50 was > 50 µM (inactive).

As for `O=C(NC(c1ccc(Cl)cc1)c1nc(-c2ccccc2)no1)c1ccc(Cl)c(Cl)c1` (stereo not given), the IC50 was > 50 µM (inactive).

As for `O=C(NC(c1ccc(Cl)cc1)c1nc(-c2cccc(Cl)c2)no1)c1cccc(Cl)c1` (stereo not given), the IC50 is > 50 µM (inactive).

For the molecule `O=C(NC(c1ccccc1)c1nc(-c2ccccc2)no1)c1cccc(Cl)n1` (stereo not given), the IC50 was > 50 µM (inactive).

With `COc1ccc(C(=O)NC(c2ccccc2)c2nc(-c3ccccc3)no2)cc1` (stereo not given), the IC50 was > 50 µM (inactive).

Take `O=C(NC(c1ccc(Cl)cc1)c1nc(-c2ccccc2)no1)c1ccc(Cl)c(Br)c1` (stereo not given): the IC50 is > 50 µM (inactive).

Regarding `O=C(c1cccc(Cl)c1)N(CCO)C(c1ccc(Cl)c(Cl)c1)c1nc(-c2ccccc2)no1` (stereo not given), the IC50 entry was “inactive”.

`CCc1ccc(C(NC(=O)c2cccc(Cl)c2)c2nc(-c3ccccc3)no2)cc1` (stereo not given): the IC50 is > 50 µM (inactive).

On to `Cc1ccc(C(NC(=O)c2cccc(Cl)c2)c2nc(-c3ccccc3)no2)cc1` (stereo not given), for which the IC50 was > 50 µM (inactive).

In the case of `O=C(NC(c1ccc(Cl)c(Cl)c1)c1nc(-c2ccccc2)no1)c1ccccc1` (stereo not given), the IC50 was > 50 µM (inactive).
